Data as given in patent US8039458B2, “HIV integrase inhibitors” (priority 2005, dated 2011).

Columns and labels:
[1] = tested on: recombinant NL-Rluc virus; experiment: Inhibition of HIV replication (NL-RLuc virus, Renilla luciferase); type: cell-based; settings: Human immunodeficiency virus 1, read-out: antiviral actitively
[2] = biological target: T1, HIV-Integrase (Human immunodeficiency virus type 1 group M subtype B, UniProt P12497); experiment: HIV-Integrase binding assay (competition with [3H]-compound I, SPA); settings: competitive binding vs [3H]-compound I to purified integrase; Ki by Cheng and Prusoff; read-out: in vitro binding
T1 construct: Recombinant integrase (0.26 ng) was incubated with the beads
Description: HIV-Integrase Inhibition Activity. To evaluate in-vitro activity against HIV-integrase, 5 pmole of biotin labeled substrate DNA was bound to 100 μg of Streptavidin coated PVT SPA beads (Amersham Pharmacia Biotech). Recombinant integrase (0.26 ng) was incubated with the beads for 90 min at 37° C. Unbound enzyme was removed by washing the complex followed by addition of inhibitors and 0.1 fmol of P33 labeled target DNA. The reaction was stopped by adding EDTA to a final concentration of 10 mM. Samples were counted in TopCountNXT (Packard) and the CPM was used as a measure of integration. The reaction condition was as described in A. Engelman and R. Craigie, J. Virol. 69, 5908-5911 (1995). The sequences of substrate and target DNA were described in Nucleic Acid Research 22,1121-1122 (1994).
HIV-Integrase binding assay. In this assay competitive binding experiments with test compounds and a radiolabeled integrase inhibitor (compound I) are performed against purified integrase. SPA bead/DNA/enzyme complexes were prepared as for the integrase inhibition assay except, to each well, 0.69 μl of integrase enzyme ([…]) was used per 2 μl of LTR DNA-attached scintillation proximity beads (stock 50 mg/ml). Binding reactions were carried out in 96-well white polystyrene assay plates (Corning, #3600). The following was added sequentially to each well: 20 μl of water or 20 μl of human serum (Cellgro Cat# 35-060-CL), 5 μl of serially diluted compound (in 50% DMSO/50% integrase SPA buffer), 5 μl of [^3H]-compound I (6,000 cpm/μl in SPA buffer) and 20 μl of bead/DNA/enzyme complex. The plates were shaken for 2 hours and then allowed to sit at room temperature without shaking overnight. The [^3H]-compound I binding was measured using a Topcount scintillation counter. Cheng and Prusoff equations were used to convert the inhibition of compound 1 binding into the corresponding Ki value. Activity equal to A refers to a compound having Ki=0.001 to 0.003 μM while B and C denote compounds having Ki=0.003 to 0.05 μM and Ki≧0.050 μM respectively.

| Compound | melting point [°C] | EC50 [1] [nM] | Ki [2] [nM] |
| --- | --- | --- | --- |
| O=C(NCc1ccc(F)cc1)c1nc2n(c(=O)c1O)CCOCC2 [Example 31, N-((4-fluorophenyl)methyl)-3-hydroxy-4-oxo-6,7,9,10-tetrahydro-4H-pyrimido[1,2-d][1,4]oxazepine-2-carboxamide] | 197 to 199 | > 50 | 3 to 50 |
| O=C(NCc1ccc(F)cc1-n1ncnc1CF)c1nc2n(c(=O)c1O)CCOCC21CCOCC1 [Example 39, N-((4-fluoro-2-(5-(fluoromethyl)-1H-1,2,4-triazol-1-yl)phenyl)methyl)-3′-hydroxy-4′-oxo-2,3,5,6,6′,7′-hexahydro-4′H-spiro[pyran-4,10′-pyrimido[1,2-d][1,4]oxazepine]-2′-carboxamide] |  | 1 to 10 | 3 to 50 |
| Cc1cnnn1-c1cc(F)ccc1CNC(=O)c1nc2n(c(=O)c1O)CCOCC21CCOCC1 [Example 37, N-((4-fluoro-2-(5-methyl-1H-1,2,3-triazol-1-yl)phenyl)methyl)-3′-hydroxy-4′-oxo-2,3,5,6,6′,7′-hexahydro-4′H-spiro[pyran-4,10′-pyrimido[1,2-d][1,4]oxazepine]-2′-carboxamide] |  | 10 to 50 | 3 to 50 |
| COCc1ncn(-c2cc(F)ccc2CNC(=O)c2nc3n(c(=O)c2O)CCOCC32CCOCC2)n1 [Example 26, N-((4-fluoro-2-(3-((methyloxy)methyl)-1H-1,2,4-triazol-1-yl)phenyl)methyl)-3′-hydroxy-4′-oxo-2,3,5,6,6′,7′-hexahydro-4′H-spiro[pyran-4,10′-pyrimido[1,2-d][1,4]oxazepine]-2′-carboxamide] |  | 10 to 50 | 3 to 50 |
| Cc1n[nH]c(-c2cc(F)ccc2CNC(=O)c2nc3n(c(=O)c2O)CCOCC32CCOCC2)n1 [Example 42, N-((4-fluoro-2-(3-methyl-1H-1,2,4-triazol-5-yl)phenyl)methyl)-3′-hydroxy-4′-oxo-2,3,5,6,6′,7′-hexahydro-4′H-spiro[pyran-4,10′-pyrimido[1,2-d][1,4]oxazepine]-2′-carboxamide] |  | 1 to 10 | 1 to 3 |
| Cc1ncnn1-c1cc(F)ccc1CNC(=O)c1nc2n(c(=O)c1O)CCOCC21CCC1 [Example 10, N-((4-fluoro-2-(5-methyl-1H-1,2,4-triazol-1-yl)phenyl)methyl)-3′-hydroxy-4′-oxo-6′,7′-dihydro-4′H-spiro[cyclobutane-1,10′-pyrimido[1,2-d][1,4]oxazepine]-2′-carboxamide] |  | 1 to 10 | 1 to 3 |
| Cc1nn(-c2cc(F)ccc2CNC(=O)c2nc3n(c(=O)c2O)CCOCC32CCOCC2)c(=O)n1C [Example 28, N-(2-(3,4-dimethyl-5-oxo-4,5-dihydro-1H-1,2,4-triazol-1-yl)-4-fluorobenzyl)-3′-hydroxy-4′-oxo-2,3,4′,5,6,6′,7′,9′-octahydrospiro[pyran-4,10′-pyrimido[1,2-d][1,4]oxazepine]-2′-carboxamide] |  | 1 to 10 | 3 to 50 |
| CS(=O)(=O)c1cc(F)ccc1CNC(=O)c1nc2n(c(=O)c1O)CCOCC21CCCC1 [Example 13, N-((4-fluoro-2-(methylsulfonyl)phenyl)methyl)-3′-hydroxy-4′-oxo-6′,7′-dihydro-4′H-spiro[cyclopentane-1,10′-pyrimido[1,2-d][1,4]oxazepine]-2′-carboxamide] |  | 1 to 10 | 1 to 3 |
| Cn1nnc(-c2cc(F)ccc2CNC(=O)c2nc3n(c(=O)c2O)CCOCC32CCCC2)n1 [Example 15, N-((4-fluoro-2-(2-methyl-2H-tetrazol-5-yl)phenyl)methyl)-3′-hydroxy-4′-oxo-6′,7′-dihydro-4′H-spiro[cyclopentane-1,10′-pyrimido[1,2-d][1,4]oxazepine]-2′-carboxamide] |  | 1 to 10 | 1 to 3 |
